Test results as given in patent publication US20120214818A1, “METHODS OF TREATING DIASTOLIC DYSFUNCTION AND RELATED CONDITIONS” (THE BOARD OF TRUSTEES OF THE UNIVERSITY OF ILLINOIS, priority 2009, published 2012).

Tested on: isolated ventricular cardiomyocytes from DOCA-salt and sham mice
Assay: Cell shortening (sarcomere shortening and relengthening) of isolated cardiomyocytes
Assay type: cell-based, mouse
Conditions: for relaxation τ (relaxation time constant): 10 μmol/L ranolazine 10 min
Method: Myocyte isolation: Cardiac ventricular myocytes were isolated from the hearts of DOCA-salt or age matched controls mice 14-18 d post-operatively using a modified enzymatic digestion protocol from the Alliance for Cellular Signaling as previously described.^20 Cell shortening and calcium transient measurements: The mechanical properties of the cardiomyocytes were assessed using an IonOptix Myocam System (Ionoptix Inc., Milton, Mass.). Unloaded cardiomyocytes were placed on a glass slide and allowed to adhere for 10 min. Cardiomyocytes were then imaged with an inverted microscope and perfused with a Tyrode's buffer containing 1.2 mmol/L calcium at room temperature. Cardiomyocytes were paced at 0.5 Hz for 10 ms duration, and sarcomere shortening and relengthening were assessed using the following indices: peak fractional shortening (FS), time to 90% peak shortening, and τ, the relaxation time constant (a0+[…]^t/τ, t=time). Cardiomyocytes were treated with 10 μmol/L ranolazine for 10 min prior to evaluation. For calcium transient measurements, cardiomyocytes were loaded with 1 μmol/L Fura 2-AM for 10 min at room temperature, and fluorescence measurements were recorded with a dual-excitation fluorescence photomultiplier system (IonOptix). After loading, the cells were washed and resuspended in normal Tyrode solution. The cardiomyocytes were placed then in the cell chamber, stimulated at 0.5 Hz for 10 ms duration, and imaged through a Fluor×40 objective lens. Cells were exposed to light emitted by a 75-W Xenon lamp and passed though either a 340- or 380-nm wavelength filter. The emitted fluorescence was detected at 510 nm. To take into account any inference from background fluorescence, the background fluorescence for each cardiomyocyte was determined by moving the cardiomyocyte out of the view and recording the fluorescence from the bath solution alone. The mechanical properties of the cardiomyocytes were assessed using an IonOptix Myocam System (Ionoptix Inc., Milton, Mass.). Unloaded cardiomyocytes were placed on a glass slide and allowed to adhere for 10 min at 37° C. Cardiomyocytes were then imaged with an inverted microscope and perfused with a Tyrode's buffer containing 1.2 mmol/L calcium at room temperature. Cardiomyocytes were paced at 0.5, 1, or 2 Hz for 10 ms duration, and sarcomere shortening and relengthening were assessed using the following indices: peak fractional shortening (FS), time to 90% peak shortening, and τ, the relaxation time constant (a0+[…]^t/τ, t=time). Cardiomyocytes were treated with 10 μmol/L ranolazine for 10 min prior to evaluation. […] For calcium transient measurements, cardiomyocytes were loaded with 1 μmol/L fura 2-AM for 10 min at 37° C., and fluorescence measurements were recorded with a dual-excitation fluorescence photomultiplier system (IonOptix). After loading, the cells were washed and resuspended in normal Tyrode solution. The cardiomyocytes were placed then in the cell chamber, stimulated at 0.5, 1, or 2 Hz for 10 ms duration, and imaged through a Fluor×40 objective lens. Cells were exposed to light emitted by a 75-W Xenon lamp and passed though either a 340- or 380-nm wavelength filter. The emitted fluorescence was detected at 510 nm. To take into account any interference, the background fluorescence for each cardiomyocyte was determined by moving the cardiomyocyte out of the view and recording the fluorescence from the bath solution alone. Myocyte isolation: Cardiac ventricular myocytes were isolated from the hearts of DOCA-salt or age matched controls mice 14-18 d post-operatively using a modified enzymatic digestion protocol from the Alliance for Cellular Signaling as previously described (Silberman et al., Circulation 121: 519-528 (2010)).

[1] = DOCA-salt cardiomyocytes paced at 1 Hz and 2 Hz (FIG. 14)

In the case of `COc1ccccc1OCC(O)CN1CCN(CC(=O)Nc2c(C)cccc2C)CC1` (stereo not drawn) [ranolazine], the “relaxation time (τ) at 1 and 2 Hz pacing” value [1] is reported as “improved relaxations times at both frequencies”, the “sarcomere length at 1 and 2 Hz pacing” value [1] is reported as “lengthened sarcomere length at both frequencies” and the “relaxation τ (relaxation time constant)” value (DOCA-salt cardiomyocytes, 0.5 Hz, 37° C. (Example 7)) is reported as 0.13 ± 0.01 s. For the same compound, the “relaxation τ (relaxation time constant)” value (DOCA-salt cardiomyocytes, paced 0.5 Hz, room temperature (Example 3)) was 0.08 ± 0.01 s, the “resting (baseline) sarcomere length” value (DOCA-salt cardiomyocytes, 10 μmol/L ranolazine (Example 6)) was 1.81±0.01 μm and the “resting (baseline) sarcomere length” value (DOCA-salt cardiomyocytes, 10 μmol/L ranolazine, 37° C. (Example 7)) was 1.81±0.01 μm. The “contraction (fractional shortening, time to 90% peak contraction)” value (sham and DOCA-salt cardiomyocytes, 10 μmol/L ranolazine) was “did not affect contraction”, the “relaxation τ (relaxation time constant)” value (sham cardiomyocytes, 0.5 Hz, 37° C. (Example 7)) was 0.09 ± 0.02 s and the “relaxation τ (relaxation time constant)” value (sham cardiomyocytes, paced 0.5 Hz, room temperature (Example 3)) was 0.07 ± 0.01 s. For the same compound, the “resting (baseline) sarcomere length” value (sham cardiomyocytes, 10 μmol/L ranolazine (Example 6)) was 1.82±0.01 μm, the “resting (baseline) sarcomere length” value (sham cardiomyocytes, 10 μmol/L ranolazine, 37° C. (Example 7)) was 1.86±0.02 μm and the “reversibility of the effect on relaxation and sarcomere length” value (washout) was “reversible upon washout”.
